Experimental data published in patent US20260265321A1, “PEPTIDE AND POLYPEPTIDE INHIBITING THE NF-KB SIGNALING PATHWAY” (Centre National de la Recherche Scientifique, priority 2023, published 2026).
Residues, ends and D or L forms follow the SMILES beside them.

Molecular target: T1, IKKα/β heterodimer (Homo sapiens, UniProt O14920+O15111, S176E/S177E/S180E/S181E)
T1 construct: co-expression of 6×His-IKKβ(1-669) EE and Strep-IKKα(10-667) EE constructs in insect cells; Strep (followed by TEV site) (N); 6×His (followed by TEV site) (N); made in house; host or cells: Sf21 insect cells (co-infection with two baculoviruses)
T1 sequence (O15111 10-667 S176E/S180E): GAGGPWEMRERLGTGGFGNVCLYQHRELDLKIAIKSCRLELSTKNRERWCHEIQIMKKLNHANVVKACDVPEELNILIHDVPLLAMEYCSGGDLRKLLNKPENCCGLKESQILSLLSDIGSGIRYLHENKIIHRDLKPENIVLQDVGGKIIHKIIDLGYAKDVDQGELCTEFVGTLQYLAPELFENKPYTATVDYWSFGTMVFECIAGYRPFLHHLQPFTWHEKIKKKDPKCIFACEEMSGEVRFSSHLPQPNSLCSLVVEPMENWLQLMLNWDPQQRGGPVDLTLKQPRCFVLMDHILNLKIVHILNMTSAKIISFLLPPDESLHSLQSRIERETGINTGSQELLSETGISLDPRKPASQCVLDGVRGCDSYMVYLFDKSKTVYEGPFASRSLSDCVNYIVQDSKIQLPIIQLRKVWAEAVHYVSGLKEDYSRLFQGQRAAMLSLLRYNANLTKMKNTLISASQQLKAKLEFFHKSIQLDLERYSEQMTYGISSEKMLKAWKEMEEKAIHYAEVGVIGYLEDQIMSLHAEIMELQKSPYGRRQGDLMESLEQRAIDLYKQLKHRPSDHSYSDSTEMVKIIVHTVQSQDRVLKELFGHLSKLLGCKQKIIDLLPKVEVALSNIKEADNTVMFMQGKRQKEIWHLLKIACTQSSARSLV
T1 sequence (O14920 1-669 S177E/S181E): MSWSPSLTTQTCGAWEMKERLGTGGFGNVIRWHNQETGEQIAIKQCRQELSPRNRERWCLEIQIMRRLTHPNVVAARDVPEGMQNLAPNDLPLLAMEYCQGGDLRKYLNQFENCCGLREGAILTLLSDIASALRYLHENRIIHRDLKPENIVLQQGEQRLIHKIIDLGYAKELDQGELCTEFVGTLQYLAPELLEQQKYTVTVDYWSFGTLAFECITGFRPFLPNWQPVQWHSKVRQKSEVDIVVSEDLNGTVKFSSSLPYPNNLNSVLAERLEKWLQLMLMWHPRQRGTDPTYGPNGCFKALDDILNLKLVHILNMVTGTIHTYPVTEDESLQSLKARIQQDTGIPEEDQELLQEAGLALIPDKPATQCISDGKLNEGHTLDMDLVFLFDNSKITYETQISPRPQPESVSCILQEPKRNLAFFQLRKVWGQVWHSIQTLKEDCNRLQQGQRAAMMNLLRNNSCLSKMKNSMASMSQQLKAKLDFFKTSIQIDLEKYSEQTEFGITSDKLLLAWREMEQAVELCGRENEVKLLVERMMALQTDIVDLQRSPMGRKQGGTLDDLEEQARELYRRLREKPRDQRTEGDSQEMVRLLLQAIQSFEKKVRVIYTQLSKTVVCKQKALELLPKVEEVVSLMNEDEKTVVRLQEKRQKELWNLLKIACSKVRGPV
Test: MBP-pulldown of reconstituted IKKα/β heterodimer
Format: binding
Method: IKKα/β heterodimer. SF21 cells expressing the Strep-IKKα(10-667) EE and 6×His-IKKβ(1-669) EE proteins were resuspended in lysis buffer (100 mM Tris-HCl pH 8.0, 150 mM NaCl, 10% glycerol, 2 mM DTT, 2 μg/ml DNaseI, 0.2 μg/ml RNAse, Roche Complete protease inhibitor cocktail) and lysed by mild sonication. Lysates were centrifuged at 14500 g for 45 minutes at 4° C. The supernatants were applied by gravity flow to Strep-Tactin XT 4F resin (IBA-lifesciences) pre-equilibrated in wash buffer (100 mM Tris-HCl pH 8, 150 mM NaCl, 10% glycerol, 1 mM EDTA, and 2 mM DTT). The resin was extensively washed with wash buffer and the proteins eluted with elution buffer (100 mM Tris-HCl pH 8, 150 mM NaCl, 10% glycerol, 2 mM DTT, and 50 mM biotin). The eluate was then applied to Ni^2+-NTA resin, which was washed and eluted as described above for the IKK homodimers. IKKα/β heterodimer samples were then concentrated and incubated in presence of 1 mM ATP plus additives (see above) for 1 hour on ice. Finally, samples were purified by gel filtration chromatography using a Superdex 200 10/30 column (GE Healthcare) pre-equilibrated in gel filtration buffer 1 (20 mM Tris-HCl PH 8.0, 150 mM NaCl, 5% Glycerol, 2 mM DTT).
Experiments were performed in PD buffer (20 mM Tris pH 8.0, 150 mM NaCl, 2 mM DTT). […] Quantification of band intensity was done using the Image J software. […]

Compound: CC(C)C[C@H](NC(=O)[C@@H](NC(=O)[C@H](CC(C)C)NC(=O)[C@H](CCCNC(=N)N)NC(=O)[C@H](CCC(N)=O)NC(=O)CNC(=O)CNC(=O)[C@H](Cc1ccccc1)NC(=O)[C@@H](NC(=O)[C@H](CS)NC(=O)[C@H](CC(=O)O)NC(=O)[C@H](CC(=O)O)NC(=O)[C@H](Cc1ccc(O)cc1)NC(=O)[C@@H]1CCCN1C(=O)[C@H](CC(C)C)NC(=O)[C@H](CCC(=O)O)NC(=O)[C@H](CC(=O)O)NC(=O)[C@H](CCC(=O)O)NC(=O)[C@@H](NC(=O)[C@H](Cc1ccccc1)NC(=O)[C@@H](N)CCC(=O)O)[C@@H](C)O)C(C)C)[C@@H](C)O)C(=O)O [IκBα pep] (H-EFTEDELPYDDCVFGGQRLTL-OH; N-terminus and C-terminus assumed)
- binding of IKKα/β heterodimer by pulldown: efficiently binds
